Assay results: ChEMBL document CHEMBL3244296, “3-Aryl- and 3-hydroxy-3-aryloctahydropyrido[2,1-c][1,4]oxazines. Synthesis, stereochemistry, and central nervous system pharmacological actions” (J Med Chem, 1978)
Active and inactive are the calls of the source. The calls are words filed in the database; no cut-off is given here.

What was measured:
[1] = test system: Mus musculus; test: Reduction in spontaneous locomotor activity in mouse at 5 mg/kg, ip measured for 30 mins relative to control; type: functional; design: scale not given: the % may be the effect or the level left; settings: route intraperitoneal
[2] = test system: Mus musculus; test: Anticonvulsant activity in ip dosed mouse assessed as protection against subcutaneous metrazol-induced seizures; type: functional; settings: read-out: MED
[3] = test system: Mus musculus; test: Neurotoxicity in ip dosed mouse assessed as time to reach peak effect by rotarod test; type: toxicity, organism-based; settings: in vivo
[4] = test system: Mus musculus; test: Anticonvulsant activity in ip dosed mouse assessed as time to reach peak effect; type: functional
[5] = test system: Mus musculus; test: Reduction in spontaneous locomotor activity in mouse at 40 mg/kg, ip measured for 30 mins; type: functional, organism-based; design: dose 40 mg/kg
[6] = Neurotoxicity in ip dosed mouse by rotarod test; type: toxicity, organism-based; settings: in vivo
[7] = test system: Mus musculus; test: Anticonvulsant activity in ip dosed mouse assessed as protection against maximal electroshock-induced seizures measured as lowest dose required for activity; type: functional; settings: read-out: MED
[8] = test system: Rattus norvegicus; test: Anorexic activity in ip dosed Sprague-Dawley rat assessed as dose required to reduce food intake by 50%; type: functional
[9] = test system: Mus musculus; test: Anticonvulsant activity in ip dosed mouse assessed as protection against maximal electroshock-induced seizures; type: functional
[10] = test system: Rattus norvegicus; test: Anorexic activity in Sprague-Dawley rat assessed as reduction in food intake at 5 to 20 mmol/kg, ip; type: functional, organism-based
[11] = test system: Mus musculus; test: Anticonvulsant activity in mouse assessed as protection against subcutaneous metrazol-induced seizures at <= 300 mg/kg, ip; type: functional, organism-based; design: dose 300 mg/kg
[12] = Protective index, ratio of TD50 for neurotoxicity in ip dosed mouse to ED50 for anticonvulsant activity in ip dosed mouse; type: toxicity, organism-based; settings: in vivo, read-out: Ratio TD50/ED50
[13] = test system: Rattus norvegicus; test: Anorexic activity in Sprague-Dawley rat assessed as reduction in food intake at […], ip relative to control; type: functional; design: scale not given: the % may be the effect or the level left
[14] = test system: Rattus norvegicus; test: Anorexic activity in Sprague-Dawley rat assessed as reduction in food intake at 10 to 40 mmol/kg, ip; type: functional, organism-based
[15] = test system: Rattus norvegicus; test: Toxicity in Sprague-Dawley rat assessed as lethality at 20 to 40 mg/kg, ip; type: organism-based; design: dose 20-40 mg/kg, route intraperitoneal; settings: in vivo
[16] = test system: Mus musculus; test: Anticonvulsant activity in mouse assessed as protection against maximal electroshock-induced seizures at <= 300 mg/kg, ip; type: functional, organism-based; design: dose 300 mg/kg
[17] = test system: Mus musculus; test: Stimulation of spontaneous locomotor activity in mouse at 20 mg/kg, ip measured for 30 mins relative to control; type: functional
[18] = test system: Mus musculus; test: Reduction in spontaneous locomotor activity in mouse at 20 mg/kg, ip measured for 30 mins relative to control; type: functional, organism-based; design: dose 20 mg/kg
[19] = Toxicity in ip dosed mouse assessed as lethality; type: organism-based; settings: in vivo

Row | Compound | Activity [5] | minimal effective dose [7] [mg/kg] | Activity [11] | further results
1 | CN(C)CCCN1c2ccccc2Sc2ccc(Cl)cc21.Cl [CHLORPROMAZINE HYDROCHLORIDE] | – | – | – | Activity [1]: 83.6%
2 | Cl.FC(F)(F)c1ccccc1C1CN2CCCCC2CO1 (configuration not stated) | Active | 30 | – | minimal effective dose [2]: 300 mg/kg; Time [3]: 0.5 h; Time [4]: 0.5 h; TD50 [6]: 716000 µmol/kg
3 | CCNC(C)Cc1cccc(C(F)(F)F)c1.Cl (configuration not stated) [FENFLURAMINE HYDROCHLORIDE] | – | – | – | Activity [8]: 16.8 mmol/kg
4 | COc1cccc(C2CN3CCCCC3CO2)c1 (configuration not stated) | Active | – | – | –
5 | Cl.OC1(c2cccc(C(F)(F)F)c2)CN2CCCCC2CO1 (configuration not stated) | Active | 30 | inactive | ED50 [9]: 78700 µmol/kg; Time [3]: 0.5 h; Time [4]: 0.5 h; Activity [10]: Active; selectivity ratio [12]: 2.77; Activity [8]: 29.6 mmol/kg; TD50 [6]: 218000 µmol/kg
6 | Cl.OC1(c2ccc(F)cc2)CN2CCCCC2CO1 (configuration not stated) | Active | 100 | inactive | –
7 | CC(=O)Nc1ccc(C2CN3CCCCC3CO2)cc1 (configuration not stated) | Active | – | – | –
8 | Cl.Clc1ccc(C2CN3CCCCC3CO2)cc1 (configuration not stated) | Active | – | – | Activity [13]: 40%; Activity [14]: Active; Activity [15]: Toxic
9 | COc1cccc(C2(O)CN3CCCCC3CO2)c1.Cl (configuration not stated) | Active | 100 | inactive | –
10 | Fc1ccc(C2CN3CCCCC3CO2)cc1 (configuration not stated) | Active | – | inactive | Activity [16]: inactive
11 | COc1ccc(C2CN3CCCCC3CO2)cc1 (configuration not stated) | Active | – | – | –
12 | CCC1(c2ccccc2)C(=O)N=C([O-])NC1=O.[Na+] (configuration not stated) [PHENOBARBITAL SODIUM] | – | – | – | ED50 [9]: 85700 µmol/kg; selectivity ratio [12]: 3.88; Activity ([17]; route intraperitoneal): 215%; TD50 [6]: 333000 µmol/kg
13 | OC1(c2ccc(Cl)cc2)CN2CCCCC2CO1 (configuration not stated) | Active | – | – | Activity [14]: inactive
14 | O=[N+]([O-])c1ccc(C2(O)CN3CCCCC3CO2)cc1 (configuration not stated) | inactive | – | – | –
15 | Cl.OC1(c2ccccc2C(F)(F)F)CN2CCCCC2CO1 (configuration not stated) | Active | 30 | inactive | Time [3]: 0.5 h; Time [4]: 0.5 h; TD50 [6]: 547000 µmol/kg
16 | COc1cc(C2CN3CCCCC3CO2)cc(OC)c1OC (configuration not stated) | Active | – | – | –
17 | COc1cc(C2(O)CN3CCCCC3CO2)cc(OC)c1OC.Cl (configuration not stated) | Active | – | – | minimal effective dose [2]: 300 mg/kg; Activity [16]: inactive

Row | Compound | Activity [5] | minimal effective dose [7] [mg/kg] | Activity [11] | further results
18 | Cc1ccc(C2CN3CCCCC3CO2)cc1 (configuration not stated) | Active | – | inactive | Activity [16]: inactive
19 | Cl.c1ccc(C2CN3CCCCC3CO2)cc1 (configuration not stated) | Active | 100 | inactive | Activity [14]: inactive; Activity [8]: 108.4 mmol/kg
20 | COc1ccc(C2(O)CN3CCCCC3CO2)cc1 (configuration not stated) | Active | – | inactive | Activity [16]: inactive
21 | Cl.FC(F)(F)c1cccc(C2CN3CCCCC3CO2)c1 (configuration not stated) | Active | 30 | inactive | ED50 [9]: 84600 µmol/kg; Time [3]: 0.5 h; Time [4]: 0.5 h; selectivity ratio [12]: 3.11; Activity [14]: Active; Activity [8]: 55.9 mmol/kg; TD50 [6]: 263000 µmol/kg
22 | CC(=O)Oc1cccc(C2CN3CCCCC3CO2)c1 (configuration not stated) | inactive | – | – | –
23 | Oc1ccc(C2CN3CCCCC3CO2)cc1 (configuration not stated) | Active | – | – | –
24 | Oc1cccc(C2CN3CCCCC3CO2)c1 (configuration not stated) | inactive | – | – | Activity [18]: Active
25 | Cl.OC1(c2ccccc2)CN2CCCCC2CO1 (configuration not stated) | Active | 100 | inactive | –
26 | Cl.OC1(c2ccc(C(F)(F)F)cc2)CN2CCCCC2CO1 (configuration not stated) | Active | 100 | inactive | Time [3]: 0.5 h; Time [4]: 0.5 h; Activity [17]: Active; LD50 [19]: 468000 µmol/kg
27 | CC(=O)Oc1cccc(C2(O)CN3CCCCC3CO2)c1 (configuration not stated) | inactive | – | – | –
28 | OC1(c2ccc(Br)cc2)CN2CCCCC2CO1 (configuration not stated) | Active | – | – | –
29 | COc1ccc(C2(O)CN3CCCCC3CO2)cc1OC.Cl (configuration not stated) | Active | – | – | minimal effective dose [2]: 100 mg/kg; Activity [16]: inactive
30 | Brc1ccc(C2CN3CCCCC3CO2)cc1 (configuration not stated) | Active | – | – | –
31 | Cc1ccc(C2(O)CN3CCCCC3CO2)cc1.Cl (configuration not stated) | Active | 100 | inactive | –
32 | COc1ccc(C2CN3CCCCC3CO2)cc1OC (configuration not stated) | Active | – | – | –
33 | Cl.FC(F)(F)c1ccc(C2CN3CCCCC3CO2)cc1 (configuration not stated) | Active | 30 | – | minimal effective dose [2]: 300 mg/kg; Time [3]: 0.5 h; Time [4]: 0.5 h; TD50 [6]: 408000 µmol/kg
